Assay results from ChEMBL document CHEMBL4052771, “3,5-Bis(3-dimethylaminomethyl-4-hydroxybenzylidene)-4-piperidone and related compounds induce glutathione oxidation and mitochondria-mediated cell death in HCT-116 colon cancer cells” (Bioorg Med Chem Lett, 2017).
Calls of active or inactive are those of the source. The rule behind the calls is not given here.

Assays:
[1] = system: Liver; assay: Induction of mitochondrial swelling in Wistar rat liver […] at 0.1 uM after 20 mins in presence of pyruvate and malate by spectroscopic analysis; type: functional
[2] = system: HCT-116; assay: Antiproliferative activity against human HCT116 cells after 48 hrs by sulforhodamine B assay; type: functional; conditions: HCT-116, 48 h
[3] = Cytotoxicity against human CRL1790 cells assessed as reduction in cell viability after 48 hrs by sulforhodamine B assay; type: cell-based; conditions: CRL1790 (CCD-841CoN) cells
[4] = Selectivity index, ratio of GI50 for human CRL1790 cells to GI50 for human HCT116 cells; type: functional
[5] = system: HCT-116; assay: Induction of mitochondrial membrane potential loss in human HCT116 cells at antiproliferative GI50 after 48 hrs by JC-1 staining based fluorescence assay; type: functional, cell-based
[6] = system: HCT-116; assay: Induction of mitochondrial superoxide generation in human HCT116 cells at antiproliferative GI50 after 60 mins by mitoSOX red-probe based fluorescence assay; type: functional, cell-based
[7] = system: HCT-116; assay: Induction of reactive oxygen species generation in human HCT116 cells at antiproliferative GI50 after 60 mins by DCFH-DA probe based assay; type: functional, cell-based
[8] = system: HCT-116; assay: Induction of glutathione oxidation in human HCT116 cells assessed as increase in GSSG/GSH ratio at 500 uM in presence of NADPH after 48 hrs by Ellman's method; type: functional, cell-based
[9] = system: Liver; assay: Stimulation of mitochondrial respiration in Wistar rat liver […] assessed as oxygen consumption rate at 0.1 and 10 uM using pyruvate and malate as respiratory substrate after 4 mins; type: functional
[10] = system: Liver; assay: Stimulation of mitochondrial respiration in Wistar rat liver […] assessed as oxygen consumption rate at 20 and 25 uM using pyruvate and malate as respiratory substrate after 4 mins; type: functional

SMILES	Activity [1]	GI50 [2] [µM]	GI50 at 48 h [3] [µM]	RatioGI50 [4]	Activity [5]	Activity [6]	Activity [7]	Activity [8]	Activity [9]	Activity [10]
COc1cc(/C=C/C(=O)CC(=O)/C=C/c2ccc(O)c(OC)c2)ccc1O [CURCUMIN]	Active	3.5	58.6	16.7	Active	Active	Active	Active	–	–
O=c1[nH]cc(F)c(=O)[nH]1 [FLUOROURACIL]	inactive	5.47	10.3	1.88	–	–	–	–	inactive	–
O=[N+]([O-])c1ccc(O)c([N+](=O)[O-])c1	–	–	–	–	–	–	–	–	–	Active
